In patent US7205297B2, “Substituted 5-alkynyl pyrimidines having neurotrophic activity” (Krenitsky Pharmaceuticals, Inc., priority 2000, dated 2007):

tested on: not given; assay: not given; conditions: not given

Row | Structure (SMILES) | melting point
1 | Nc1ncc(C#Cc2ccccc2)c(NCCOCCO)n1 [Example 19, 2-amino-4-[2-(2-hydroxyethoxy)ethylamino]-5-phenylethynyl pyrimidine] | 128 to 129 °C
2 | Nc1ncc(C#Cc2ccc(Cl)cc2)c(OC2CCC(=O)CC2)n1 [Example 41, 2-amino-5-(4-chlorophenylethynyl)-4-(4-oxocyclohexyloxy) pyrimidine] | 168 to 172 °C
3 | COc1ccc(C#Cc2cnc(N)nc2Nc2ccc(O)cc2)cc1.Cl | 220 to 230 °C (dec.)
4 | Nc1ncc(C#Cc2ccc(Cl)cc2)c(N[C@H]2CC[C@H](O)CC2)n1 [Example 12, 2-amino-5-(4-chlorophenylethynyl)-4-(trans-4-hydroxycyclohexylamino)pyrimidine] | 215 to 218 °C
5 | O[C@H]1CC[C@H](Nc2ncncc2C#Cc2ccc(Cl)cc2)CC1 (hydrate or solvate) [Example 4, 5-(4-chlorophenylethynyl)-4-(trans-4-hydroxycyclohexylamino) pyrimidine] | 151 to 155 °C
6 | Nc1ncc(C#Cc2ccc(Cl)cc2)c(NCCOCCO)n1 [Example 14, 2-amino-5-(4-chlorophenylethynyl)-4-[2-(2-hydroxyethoxy)ethylamino]pyrimidine] | 176 to 180 °C
7 | Cl.Oc1ccc(Nc2ncncc2C#Cc2ccccc2)cc1 | 223 to 225 °C (dec.)

tested on: PC12 cells; assay: Choline acetyltransferase (ChAT) assay in NGF-treated PC12 cells; type: cell-based, rat; conditions: 3 days incubation with test compound, versus NGF alone
Method: Cultured PC12 cells (rat adrenal pheochromocytoma from ATCC) have receptors for NGF. Responses include promotion of neurite outgrowth and elevation of choline acetyltransferase (ChAT) (L. A. Greene and A. S. Tischler, Cell Neurobiol., 3, 373 (1982)).
The following assay is modified from that described in H L White and P W Scates, Neurochem. Res., 16, 63 (1991). PC12 cells were cultured at 37° C. in RPMI supplemented with HEPES buffer, pH7.5 (to 10 mM), fetal bovine serum, horse serum, glutamine, penicillin, streptomycin and non-essential amino acids. Cultures were split 1:3 every 3 to 4 days. Exponentially dividing cells were plated into fresh medium on collagen-coated 12-well plastic dishes (10^5 cells/well). After allowing one day for cell attachment, the medium was replaced with low serum medium, with or without test compounds with each condition in triplicate. The medium may contain up to 0.2% ethanol, which was used as a solvent for most compounds tested. Cells were examined for morphological changes using an Olympus IMT-2 inverted research microscope. After 3 days incubation with test compounds, medium was removed and replaced with 0.2 ml of lysis and ChAT assay mixture. The plates were incubated at 37° C. for 2 hours and then placed into a freezer at −20° C.
Compounds are judged NGF-like in this primary screen if they (1) increase the activity of ChAT, (2) enhance NGF-stimulated neurite outgrowth or (3) potentiate or appear additive with the action of NGF itself.
The assay mixture contained 100 mM phosphate, pH7.4, 0.1% NP40, 150 mM NaCl, 1.5 mM choline, 10 mM EDTA, 0.1 mM eserine, 0.1 mM acetyl-coenzyme A and about 0.5 uCi (40–70 Ci/mol) [14C]acetyl-coenzyme A in each ml of mixture. Thawed and lysed cell reaction mixtures were diluted to 1 ml with water and transferred to 7 ml scintillation vials containing 5 ml of extraction/scintillation fluid solution (50 mg triphenyl borate, 50 mg PPO, 20 mg POPOP per 100 ml of 20% acetonitrile/80% toluene) and vortexed for 10 seconds. After all 20 diluted well contents were transferred and mixed, all the vials were vortexed again for 30 seconds, rotated for about 2 hours, and then vortexed once more. The vials were centrifuged at 3000 rpm (rmax.=16 cm) for 15 minutes and then counted in a Beckman LS6500 scintillation counter. Background counts from reaction mixtures with extracts from non-stimulated cells (no NGF and no test compound) were subtracted from reaction product counts before comparisons of ChAT activities were made.
The following data were obtained for representative compounds of the present invention which (1) increased the activity of choline acetyltransferase ChAT), (2) enhanced NGF-stimulated neurite outgrowth and/or (3) potentiated or appeared additive with the action of NGF itself. The concentration at which the test compound doubled the ChAT activity over the activity with NGF alone (no test compound) was recorded as the EC2x value.

Row | Structure (SMILES) | EC2× (concentration at which the test compound doubled the ChAT activity over the activity with NGF alone) [µM]
8 | Nc1ncc(C#Cc2ccc(Cl)cc2)c(NCCO)n1 [Example 13, 2-amino-5-(4-chlorophenylethynyl)-4-(2-hyroxyethylamino) pyrimidine] | 0.3
9 | Nc1ncc(C#Cc2ccccc2)c(N[C@H]2CC[C@H](O)CC2)n1 [Example 9, 2-amino-4-(trans-4-hydroxycyclohexylamino)-5-phenylethynylpyrimidine] | 0.1
10 | O[C@H]1CC[C@H](Nc2ncncc2C#Cc2ccc(Cl)cc2)CC1 [Example 4, 5-(4-chlorophenylethynyl)-4-(trans-4-hydroxycyclohexylamino) pyrimidine] | 0.2
11 | CCc1ccc(C#Cc2cnc(N)nc2N[C@H]2CC[C@H](O)CC2)cc1.Cl [Example 26, 2-amino-5-(4-ethylphenylethynyl)-4-(4-trans-hydroxycyclohexylamino) pyrimidine hydrochloride] | 0.2
12 | Nc1ncc(C#Cc2ccc(Cl)cc2)c(N[C@H]2CC[C@@H](O)CC2)n1 [Example 23, 2-amino-5-(4-chlorophenylethynyl)-4-(4-cis-hydroxycyclohexylamino)pyrimidine] | 0.3
13 | Nc1ncc(C#Cc2ccc(Cl)cc2)c(N[C@H]2CC[C@H](O)CC2)n1 [Example 12, 2-amino-5-(4-chlorophenylethynyl)-4-(trans-4-hydroxycyclohexylamino)pyrimidine] | 0.2
14 | Nc1ncc(C#Cc2ccc(Cl)cc2)c(NCCOCCO)n1 [Example 14, 2-amino-5-(4-chlorophenylethynyl)-4-[2-(2-hydroxyethoxy)ethylamino]pyrimidine] | 0.5
